In patent US8076369B2, “N-alkyl-hydroxamic acid-isoindolyl compounds and their pharmaceutical uses” (Celgene Corporation, priority 2003, dated 2011):

With `CCOc1cc([C@@H](CCO)N2Cc3cccc(NC(=O)C4CC4)c3C2=O)ccc1OC` [Example 1, (1R)-Cyclopropanecarboxylic acid {2-[1-(3-ethoxy-4-methoxy-phenyl)-3-hydroxy-propyl]-3-oxo-2,3-dihydro-1H-Isoindol-4-yl}-amide] the melting point was 103 to 105 °C.
With `CCOc1cc(C(CCN(OC(=O)OC(C)(C)C)C(=O)OC(C)(C)C)N2Cc3cccc(NC(=O)C4CC4)c3C2=O)ccc1OC` [Example 4, (3R)-(tert-Butoxy)-N-{3-[7-(cyclopropylcarbonylamino)-1-oxoisoindolin-2-yl]-3-(3-ethoxy-4-methoxyphenyl)propyl}carbonylamino(tert-butoxy)formate] the melting point was 153 to 155 °C.
`CCOc1cc(C(CCN(OC(=O)OC(C)(C)C)C(=O)OC(C)(C)C)N2Cc3cccc(N)c3C2=O)ccc1OC` (stereo not drawn) [Example 5, N-[3-(7-Amino-1-oxoisoindolin-2-yl)-3-(3-ethoxy-4-methoxyphenyl)propyl](tert-butoxy)carbonylamino (tert-butoxy)formate] gave a melting point of 85 to 87 °C.
`CCOc1cc([C@@H](CCNO)N2Cc3cccc(NC(=O)C4CC4)c3C2=O)ccc1OC` [Example 6, (3R)-Cyclopropanecarboxylic acid {2-[1-(3-ethoxy-4-methoxy-phenyl)-3-hydroxyamino-propyl]-3-oxo-2,3-dihydro-1H-Isoindol-4-yl}-amide] gave a melting point of 136 to 138 °C.
For `CCOc1cc([C@@H](CCN(O)C=O)N2Cc3cccc(NC(=O)C4CC4)c3C2=O)ccc1OC` [Example 7, (1R)-Cyclopropanecarboxylic acid {2-[1-(3-ethoxy-4-methoxy-phenyl)-3-(N-formyl-N-hydroxy-amino)-propyl]-3-oxo-2,3-dihydro-1H-Isoindol-4-yl}-amide], the melting point was 102 to 104 °C.
In the case of `CCOc1cc([C@@H](CCN(O)C=O)N2Cc3cccc(NC(C)=O)c3C2=O)ccc1OC` [Example 8, (1R)—N-{2-[1-(3-Ethoxy-4-methoxy-phenyl)-3-(N-formyl-N-hydroxy-amino)-propyl]-3-oxo-2,3-dihydro-1H-Isoindol-4-yl}-acetamide], the melting point was 79 to 81 °C.
Molecule `CCOc1cc([C@@H](CCN(O)C=O)N2Cc3cccc(NC(=O)C(C)C)c3C2=O)ccc1OC` [Example 9, (1R)—N-{2-[1-(3-Ethoxy-4-methoxy-phenyl)-3-(N-formyl-N-hydroxy-amino)-propyl]-3-oxo-2,3-dihydro-1H-Isoindol-4-yl}-Isobutyramide] has a melting point of 81 to 83 °C.
For `CCOc1cc([C@@H](CCN(O)C=O)N2C(=O)c3cccc(NC(C)=O)c3C2=O)ccc1OC` [Example 10, (1R)—N-{2-[1-(3-Ethoxy-4-methoxy-phenyl)-3-(N-formyl-N-hydroxy-amino)-propyl]-1,3-dioxo-2,3-dihydro-1H-Isoindol-4-yl}-acetamide], the melting point was 96 to 98 °C.
With `CCOc1cc([C@@H](CCN(C=O)OC(C)=O)N2Cc3cccc(NC(=O)C(C)C)c3C2=O)ccc1OC` [Example 11, (1R)—N-{2-[3-(N-Acetoxy-N-formyl-amino)-1-(3-ethoxy-4-methoxy-phenyl)-propyl]-3-oxo-2,3-dihydro-1H-Isoindol-4-yl}-Isobutyramide] the melting point was 72 to 74 °C.
For `CCOc1cc([C@@H](CCN(O)C(N)=O)N2Cc3cccc(NC(=O)C(C)C)c3C2=O)ccc1OC` [Example 12, (1R)—N-{2-[3-(N-Aminocarbonyl-N-hydroxy-amino)-1-(3-ethoxy-4-methoxy-phenyl)-propyl]-3-oxo-2,3-dihydro-1H-Isoindol-4-yl}-Isobutyramide], the melting point was 137 to 139 °C.
In the case of `CCOc1cc(C(CCN(OC(C)=O)C(C)=O)N2Cc3cccc(NC(=O)C4CC4)c3C2=O)ccc1OC` (stereo not drawn) [Example 14], the melting point was 123 to 125 °C.
In the case of `CCOc1cc([C@@H](CC(C)N(O)C=O)N2Cc3cccc(NC(=O)C4CC4)c3C2=O)ccc1OC` (stereo partly drawn) [Example 15, (1R)-Cyclopropanecarboxylic acid {2-[1-(3-ethoxy-4-methoxy-phenyl)-3-(formyl-hydroxy-amino)-butyl]-3-oxo-2,3-dihydro-1H-Isoindol-4-yl}-amide], the melting point was 142 to 144 °C.
